Measured values: the NIST ThermoML archive (doi:10.1016/j.tca.2015.01.022)
± gives the expanded uncertainty stated by the source.

Assay: molar heat capacity at constant pressure
Details: 101.33 kPa, Small (less than 1 g) adiabatic calorimetry

CCCCCCCC[n+]1ccn(C)c1.F[B-](F)(F)F [1-methyl-3-octylimidazolium tetrafluoroborate]
molar heat capacity at constant pressure [J/K/mol]
Details | Crystal | Glass
74.07 K | – | 159.5 ± 0.9
74.59 K | 157.4 ± 0.9 | –
76.42 K | – | 163.4 ± 0.9
76.96 K | 161 ± 0.9 | –
78.77 K | – | 167.3 ± 0.9
79.33 K | 164.5 ± 0.9 | –
79.7 K | 165.1 ± 0.9 | –
80 K | 165.4 ± 1 | 169.5 ± 1
80.09 K | 165.7 ± 0.9 | –
80.17 K | – | 169.7 ± 1
81.13 K | – | 171.2 ± 1
81.61 K | 167.8 ± 0.9 | –
81.71 K | 167.9 ± 0.9 | –
81.87 K | 168.2 ± 0.9 | –
81.93 K | – | 172.6 ± 1
83.39 K | 170.3 ± 1 | –
83.49 K | – | 175 ± 1
83.65 K | 170.6 ± 1 | –
83.69 K | – | 175.5 ± 1
84.09 K | 171.2 ± 1 | –
85.19 K | 172.7 ± 1 | –
85.45 K | 173.2 ± 1 | –
85.46 K | – | 178.2 ± 1
87 K | 175.2 ± 1 | –
87.24 K | – | 181 ± 1
87.26 K | 175.7 ± 1 | –
88.81 K | 177.8 ± 1 | –
89.03 K | – | 183.9 ± 1
89.08 K | 178.2 ± 1 | –
90 K | 179.5 ± 1 | 185.3 ± 1
90.64 K | 180.3 ± 1 | –
90.83 K | – | 186.6 ± 1
90.9 K | 180.7 ± 1 | –
92.07 K | – | 188.5 ± 1
92.47 K | 182.7 ± 1 | –
92.64 K | – | 189.3 ± 1
92.74 K | 183.1 ± 1 | –
93.91 K | – | 191.2 ± 1
94.31 K | 185.2 ± 1 | –
94.58 K | 185.6 ± 1 | –
95.76 K | – | 193.9 ± 1
96.17 K | 187.6 ± 1 | –
96.43 K | 187.9 ± 1 | –
97.6 K | – | 196.8 ± 1.1
98.02 K | 190.1 ± 1 | –
98.29 K | 190.4 ± 1 | –
99.45 K | – | 199.4 ± 1.1
99.89 K | 192.4 ± 1 | –
100 K | 192.5 ± 1.1 | 200.2 ± 1.1
100.16 K | 192.7 ± 1 | –
101.31 K | – | 202.1 ± 1.1
101.76 K | 194.8 ± 1 | –
102.03 K | 195.1 ± 1 | –
103.16 K | – | 204.8 ± 1.1
103.64 K | 197.2 ± 1.1 | –
103.91 K | 197.5 ± 1.1 | –
105.01 K | – | 207.5 ± 1.1
105.53 K | 199.4 ± 1.1 | –
105.8 K | 199.8 ± 1.1 | –
106.87 K | – | 210.2 ± 1.1
107.42 K | 201.7 ± 1.1 | –
107.69 K | 202.1 ± 1.1 | –
108.73 K | – | 212.9 ± 1.1
109.32 K | 204.1 ± 1.1 | –
109.58 K | 204.4 ± 1.1 | –
110 K | 204.9 ± 1.1 | 214.7 ± 1.2
110.6 K | – | 215.5 ± 1.1
111.22 K | 206.4 ± 1.1 | –
111.49 K | 206.7 ± 1.1 | –
112.46 K | – | 218.2 ± 1.2
113.12 K | 208.7 ± 1.1 | –
113.39 K | 209 ± 1.1 | –
114.33 K | – | 220.8 ± 1.2
115.03 K | 210.9 ± 1.1 | –
115.3 K | 211.2 ± 1.1 | –
116.2 K | – | 223.4 ± 1.2
116.94 K | 213.1 ± 1.1 | –
117.21 K | 213.4 ± 1.1 | –
118.07 K | – | 226.1 ± 1.2
118.86 K | 215.4 ± 1.1 | –
119.13 K | 215.7 ± 1.1 | –
119.94 K | – | 228.8 ± 1.2
120 K | 216.7 ± 1.2 | 229 ± 1.2
120.78 K | 217.6 ± 1.2 | –
121.05 K | 218 ± 1.2 | –
121.81 K | – | 231.5 ± 1.2
122.7 K | 219.9 ± 1.2 | –
122.97 K | 220.2 ± 1.2 | –
123.69 K | – | 234.2 ± 1.2
124.63 K | 222.1 ± 1.2 | –
124.9 K | 222.4 ± 1.2 | –
125.57 K | – | 237 ± 1.2
126.55 K | 224.3 ± 1.2 | –
126.83 K | 224.6 ± 1.2 | –
127.44 K | – | 239.7 ± 1.3
128.49 K | 226.5 ± 1.2 | –
128.76 K | 226.8 ± 1.2 | –
129.32 K | – | 242.4 ± 1.3
130 K | 228.2 ± 1.2 | 243.4 ± 1.3
130.42 K | 228.7 ± 1.2 | –
130.69 K | 229 ± 1.2 | –
131.2 K | – | 245.1 ± 1.3
132.35 K | 230.9 ± 1.2 | –
132.62 K | 231.1 ± 1.2 | –
133.08 K | – | 248 ± 1.3
134.29 K | 233.1 ± 1.2 | –
134.56 K | 233.4 ± 1.2 | –
134.97 K | – | 250.8 ± 1.3
136.23 K | 235.3 ± 1.2 | –
136.5 K | 235.6 ± 1.2 | –
136.86 K | – | 253.6 ± 1.3
138.16 K | 237.5 ± 1.3 | –
138.44 K | 237.8 ± 1.3 | –
138.74 K | – | 256.4 ± 1.3
140 K | 239.7 ± 1.3 | 258.2 ± 1.3
140.11 K | 239.7 ± 1.3 | –
140.38 K | 240 ± 1.3 | –
140.63 K | – | 259.2 ± 1.4
142.05 K | 242 ± 1.3 | –
142.32 K | 242.3 ± 1.3 | –
142.52 K | – | 262 ± 1.4
143.99 K | 244.3 ± 1.3 | –
144.26 K | 244.6 ± 1.3 | –
144.42 K | – | 264.9 ± 1.4
145.93 K | 246.5 ± 1.3 | –
146.2 K | 246.8 ± 1.3 | –
146.31 K | – | 267.8 ± 1.4
147.87 K | 248.8 ± 1.3 | –
148.14 K | 249 ± 1.3 | –
